# Results reported in patent US20190298717A1 (BOARD OF REGENTS, THE UNIVERSITY OF TEXAS SYSTEM, priority 2016, published 2019).
# Columns and labels:
# SH-SY5Y cells [1] = settings: 72 hours
# Experimental: Mitochondrial mass was measured by staining the cells with Mito tracker deep red followed by flow cytometric analysis. […] DNA copy number of mitochondria was calculated by amplification of ND5 or m-RNR, as mitochondrial genes, relative to LPL as a nucleus specific DNA sequence. Relative expression values were normalized to untreated cells.
# Several parameters directly linked to intact mitochondria itself, namely mitochondrial mass, mtDNA copy number (as representatives of mitochondrial biogenesis), mitochondrial membrane potential (reporter of mitochondrial function) and ATP level as a signature of energetics (FIGS. 11A to 11E) were measured. […] Isoniazid (20 μM) and resveratrol (20 μM) were used as negative and positive controls respectively). Mitochondrial mass was also evaluated in parallel by measuring the relative amount of mitochondrial to nuclear DNA. Two different set of primers (ND5 and m-RNR) were used to amplify mt-DNA in qPCR reactions (FIG. 11B).
# (§1) The mitochondrial membrane potential was measured as an indicator of cellular energetics and ATP content.
# LC3 = settings: 0, 5, 10 μM, ± bafilomycin 20 nM, 4 hours
# Description: (§2) Results are expressed as means±SD from three independent experiments. […] Cell lysates were then subjected to Western blot analysis.
# (§3) A cell titer glow luminescence assay was used to measure cell cytotoxicity. […] LC3, microtubule-associated protein 1 light chain 3, which is a homologue of Apg8p essential for autophagy in yeast, is processed posttranslationally into LC3-I in cytosol. LC3-I is then converted into LC3-II, which associates with autophagosome membranes. The ratio of LC3-II/LC3-I determines the status of the autophagy process.
# SH-SY5Y cells [2] = system: SH-SY5Y cells
# Description: as §2, §3
# Nrf2 = system: Nrf2
# Experimental: The inventors quantified Nrf2 protein in treated cells as a first step towards validating the prediction of the Nrf2 pathway.
# Nrf2 phosphorylation on serine 40 is a regulatory modification required for Nrf2 translocation to nucleus and downstream protein activation.
# Western Blot Analysis. Protein expression was determined by Western blot analysis. Equal amount of protein from each sample was run in Tris-glycine SDS PAGE gel, followed by transferring to PVDF membrane. After blocking the membrane with 5% milk for 1 hour at room temperature, the membrane was incubated further for 2 hours with antibodies specific for target proteins: Nrf2, pNrf2(S40) from Novus (Littleton, Colo.); Keap1, HO-1, NQO1, GCLc, GCLm and lamin B1 from Cell Signaling (Danvers, Mass.); GAPDH from Santa Cruz (Dallas, Tex.); β-Actin from Thermo Fisher (Waltham, Mass.). The membrane was subsequently incubated with species-specific HRP-conjugated secondary antibody followed by incubation with chemiluminescence substrate and imaging. The band intensity of each of the target proteins was quantified using ImageQuant software (GE Healthcare, Sweden). Western blot analysis on worm lystaes was done similarly. […] Equal amounts of protein were run on the gel and SKN-1 protein level was detected using anti-GFP antibody.
# Cell Fractionation. Nuclear and cytoplasmic fractions were separated using the protocol and NE-PER Nuclear and Cytoplasmic Extraction Reagents provided by […]. Briefly, the cells were harvested and washed with ice-cold PBS buffer. The cells were resuspended in ice-cold CER-I buffer and incubated on ice for 10 minutes, followed by addition of CER-II buffer and incubation for one more minute on ice. The lysate was centrifuged at 16,000 g for 5 minutes. The supernatant was the cytoplasmic fraction. The pellet obtained was lysed in ice-cold NER buffer to obtain nuclear protein fractions.
# SH-SY5Y cells [3] = settings: Aβ (1-42) 20 μM, 24 hour; 46% with Aβ alone
# Experimental: Densitometry values were normalized against actin.
# After 24 hour treatment, cell viability was measured using the cell titer glow luminescence assay.
# C. elegans = system: C. elegans
# Experimental: Measurement of Reactive Oxygen Species. Superoxide concentration was measured by dihydroethidium (DHE). Black clear bottom 96 well plates were seeded with about 5000 HEK293 tau aggregate-negative (control) and aggregate-positive model cells per well and about 20000 SH-SY5Y cells (the NRF2 knockdown of both cell lines were also seeded). […] Fluorescence was measured by Spectramax Gemini XPS plate reader (Molecular Devices, Sunnyvale, Calif.) at 370 nm excitation and 420 nm emission wavelengths. […] Equal number of animals were transferred to a black bottom 96 well plate and fluorescence was measured same as above.
# [4] = system: PC12 cells expressing EGFP-HDQ74
# Experimental: Transgene expression was induced with doxycycline for 8 hours, and then switched off (by removing doxycycline). […] The fraction of EGFP-positive cells expressing aggregates under different conditions were plotted as odds ratios taking Ctrl value as 1. Error bars show 95% confidence interval. […] The fraction of EGFP-positive cells with aggregates were plotted as odds ratios taking Ctrl value as 1. Error bars show 95% confidence interval. […] Rapamycin ([…]) was used as positive control. Right panel is densitometry analysis of EGFP-HDQ74 level normalized to actin. Error bars show SD. […] The fraction of EGFP-positive cells expressing aggregates were plotted as odds ratios taking Ctrl value as 1. Error bars show 95% confidence interval.
# To investigate the clearance of HDQ74 (74 repeats of poly Q), the inventors used a stable doxycycline-inducible PC12 cell line expressing EGFP-tagged HDQ74 in which transgene expression were induced by doxycycline addition to the cell media and switched off by doxycycline removal. […] Rapamycin, a known autophagy inducer, was used as positive controls.
# SH-SY5Y cells [5] = experiment: Mitochondrial membrane potential (TMRE); type: cell-based, human; settings: hydralazine 0, 10, 20 μM; isoniazid 20 μM
# Experimental: Cells were stained by TMRE to tag active mitochondria. Florescence signal was quantified by Flow Jo software. […] ATP levels were measured by bioluminescent detection of luciferase activity. All data are presented normalized to cell number.
# as §1
# Experimental for primary cortical neurons: For each group (control, 0.5 μM Hyd, 1 μM Hyd, 2 μM Hyd and 2 μM Dimebon) 10 images from three replicates were analyzed. Total numbers of spines, stubby, thin, and mushroom were counted by NeuronStudio software for each image. The mean value and standard deviation of numbers for each group were calculated. P value was calculated with non-parametric T-test. All values are mean±SD (*p<0.05, **p<0.01).
# Primary neuronal cells from cortex were visualized with td-Tomato (FIG. 21A). Cells were treated with 500 nM Aβ-42 oligomers or vehicle (Ctrl). Spine density and morphology were measured per 10 micron by confocal imaging. […] Mushroom and thins are indicated with an arrow. […] Dimebon, a known neuroprotective compound, was used as positive control in all experiments. Data were collected from three batches of cultures for all treatments and Ctrl. For spine quantification n=8-10 (for each treatment per one experiment) neurons were analyzed by Neuronstudio. Scale bar corresponds to 5 μm. Experiment was repeated three times. Values are shown as mean±SEM. (*p<0.05, **p<0.01, ***p<0.001, ****p<0.0001).
# Primary neuronal cells were isolated from the cortex of mice pups on day 0 (P0) and cultured in 24 well plates covered by poly-D-lysine coated coverslips with a density of 1.0×105 for 7 days. Cells were then transfected with tdTomato plasmid and incubated for 14 additional days (4). […] Dimebon (2 μM) was used as a positive control. After 24 hours of treatment, cells were fixed and scanned with a Zeiss microscope at 100× resolution for visualizing spines on the dendrites. The images were analyzed using Neuronstudio software (5). […] Structural formation and the maturation of spines were also analyzed.
compound,measurement,setting,value
NNc1nncc2ccccc12 [Hydralazine],mitochondrial mass,"SH-SY5Y cells [1]; 0, 10, 20 μM",sharp increase in mitochondrial mass
same,increase in mt-DNA copy number,SH-SY5Y cells [1]; 20 μM,more than 50%
same,ratio of LC3-II/LC3-I,LC3,increase in the ratio of LC3-II/LC3-I
same,protection against oxidative stress under proteasomal inhibition by MG132,"SH-SY5Y cells [2]; MG132 10 μM, H2O2 100 μM, 4 hours",does not have an impact
same,protection against oxidative stress under autophagy inhibition with bafilomycin,"SH-SY5Y cells [2]; bafilomycin 20 nM, H2O2 100 μM, 4 hours",significantly reduces the ability of hydralazine to protect cells
same,concentration at which no toxicity was observed,"SH-SY5Y cells [2]; human, 48 h",up to 25 μM
same,concentration with significant decrease in cell viability compared to control,"SH-SY5Y cells [2]; human, 48 h",≥ 50 µM
same,increase of phosphorylation of Nrf2 on serine 40 in the nuclear compartment,Nrf2; SH-SY5Y,25%
same,phosphorylation of cytosolic Nrf2,Nrf2; SH-SY5Y,no change was observed
same,increase in Nrf2 level compared to untreated cells,"Nrf2; SH-SY5Y, 10 μM, 24 h, Western blotting",about 20%
same,cytosolic Nrf2 fraction,"Nrf2; SH-SY5Y, 10, 20 μM",remained unchanged
same,nuclear localization of Nrf2,"Nrf2; SH-SY5Y, 10, 20 μM",significantly increased
same,cells surviving Aβ (1-42) peptide treatment,SH-SY5Y cells [3],70-80%
same,superoxide concentration in N2 worms,C. elegans,decreased superoxide concentration
same,"poly Q aggregates (Western blot, EGFP tag)",[4],efficient removal of poly Q aggregates
same,EGFP-HDQ74 aggregates (confocal),"[4]; 10 μM, 48 hours",significantly reduced
same,clearance of Poly Q aggregates after 3-MA and bafilomycin,"[4]; 5 mM 3-MA, 20 nM bafilomycin",abrogated
same,EGFP-HDQ74 aggregates in ATG5 knock-down cells,[4]; ATG5 shRNA,failed to clear
same,mitochondrial membrane potential / mitochondrial function (TMRE),SH-SY5Y cells [5],improves mitochondrial function in a dose dependent manner
same,spine density after Aβ-42 oligomers,"primary cortical neurons; 1 μM, 500 nM Aβ-42, 24 hours",restoration of spine density
same,numbers of spines in a 10 micron length of dendrite,"primary cortical neurons; 0.5, 1.0, 2.0 μM, 24 hours",significantly increased
same,stubby formation and mushroom spines,"primary cortical neurons; 0.5, 1.0, 2.0 μM, 24 hours",increased the stubby formation and numbers of matured spines
